The text below walks through data of publication PMC9260081, “Design, Synthesis, and Evaluation of Anticonvulsant Activities of New Triazolopyrimidine Derivatives” (Frontiers in Chemistry, 2022).

Data set [1] concerns MES-induced seizures. In words: Maximal electroshock seizure (MES) test. The conditions noted are these: Mus musculus, ip, mice, dosages 30, 100, 300 mg/kg, read-out: MES screening, minimum dose whereby bioactivity was demonstrated in half or more of the mice. Format: in vivo, mice. On the procedure: (§1) Male Kunming mice with weights from 18 to 22 g were used in all the pharmacological experiments. The mice were housed in the standard cages with 10 each, where a controlled temperature (25°C ± 2°C) with a 12 h light/dark cycle was maintained. All animals had free access to food and water. All experiments and procedures involving animals were carried out according to the Guide for the Care and Use of Laboratory Animals (National Academies Press, Washington, D.C., United States). Approval from the local medical ethical committee was obtained before the experiment.
In the MES test, mice were subjected to ear stimulation using a 0.2 s 60-Hz 50-mA alternating current to elicit seizures. Tonic hind limb extension was considered as the seizure occurring, and the vanishing of tonic hind limb extension indicates the protection against the MES-induced seizures. Mice were injected intraperitoneally with test compounds at doses of 300, 100, and 30 mg/kg to evaluate their general anticonvulsant activity. Half and 4 h intervals were chosen to test the anti-MES activity. […] A series of doses of the tested compounds were injected into the mice with 10 in one group.
Background: The maximal electroshock test induces tonic seizures with an electrical stimulus.

Data set [2] relates to PTZ-induced seizures. In words: Subcutaneous pentylenetetrazole (PTZ) test. The conditions noted are these: Mus musculus, ip, mice, dosages 30, 100, 300 mg/kg, read-out: PTZ screening, minimum dose whereby bioactivity was demonstrated in half or more of the mice. Format: in vivo, mice. On the procedure:
as §1
In the PTZ test, mice were subcutaneously administered with PTZ at the dose of 85 mg/kg. At this dose, mice can be elicited a threshold seizure characterized by an episode of clonic spasms and tonic spasms. After being treated with test compounds at doses of 300, 100, and 30 mg/kg, the mice were considered protected if a single episode of clonic spasms of more than 5 s duration was not obtained. The quantitative anticonvulsant activity (ED50) in the PTZ model was determined and calculated with the same method described in the MES test.

The subject of data set [3] is ability to maintain equilibrium on rotating rod. As to the kind of experiment: Neurotoxicity screening (rotarod test). The conditions noted are these: i.p., dosages 30, 100, 300 mg/kg. It counts as in vivo. Here is the method:
as §1
The rotarod test was used to evaluate the neurotoxicity of the synthesized compounds. Before the formal experiments, mice were trained to climb on a rotating rod of diameter 3.2 cm with the rotation speed of 10 rpm. Test compounds in the three doses were intraperitoneally injected into the trained mice. […] The rough neurotoxic dose was obtained in which mice cannot maintain equilibrium on the rod for at least 1 min. The quantitative neurotoxic dose (TD50) of the test compounds was measured and calculated with the same method described in the MES test.
A general note: The rotarod test checks motor coordination on a turning rod.

The structures appear in SMILES notation. Like-named read-outs stand apart in the source and are kept apart here.

In the case of `Clc1ccccc1-c1ccnc2ccnn12` [Compound 4c, 7-(2-Chlorophenyl)pyrazolo[1,5-a]pyrimidine], the minimal effective dose in data set [1] (0.5 h after injection), in data set [1] (4 h after injection), in data set [2] (0.5 h after injection) and in data set [2] (4 h after injection) was over 300 mg/kg each time. The “NT screening (rotarod), minimum neurotoxic dose in half or more of the mice” value (“NT screening (rotarod)” below) in data set [3] (0.5 h after injection) was “— (A dash indicates the absence of anticonvulsant activity and neurotoxicity at the maximum dose administered (300 mg/kg))”; in data set [3] (4 h after injection) it was “— (A dash indicates the absence of anticonvulsant activity and neurotoxicity at the maximum dose administered (300 mg/kg))”.
Take `c1ccc(-c2ccnc3ccnn23)cc1` [Compound 4a, 7-Phenylpyrazolo[1,5-a]pyrimidine]: the minimal effective dose in data set [1] (0.5 h after injection), in data set [1] (4 h after injection), in data set [2] (0.5 h after injection) and in data set [2] (4 h after injection) was over 300 mg/kg each time. In addition, the “NT screening (rotarod)” value in data set [3] (0.5 h after injection) was “— (A dash indicates the absence of anticonvulsant activity and neurotoxicity at the maximum dose administered (300 mg/kg))”; in data set [3] (4 h after injection) it was “— (A dash indicates the absence of anticonvulsant activity and neurotoxicity at the maximum dose administered (300 mg/kg))”.
`Clc1ccc(-c2ccnc3ccnn23)cc1` [Compound 4d, 7-(4-Chlorophenyl)pyrazolo[1,5-a]pyrimidine]: the minimal effective dose in data set [1] (0.5 h after injection), in data set [1] (4 h after injection), in data set [2] (0.5 h after injection) and in data set [2] (4 h after injection) was over 300 mg/kg each time. Besides, the “NT screening (rotarod)” value in data set [3] (0.5 h after injection) was “— (A dash indicates the absence of anticonvulsant activity and neurotoxicity at the maximum dose administered (300 mg/kg))”; in data set [3] (4 h after injection) it was “— (A dash indicates the absence of anticonvulsant activity and neurotoxicity at the maximum dose administered (300 mg/kg))”.
In the case of `Fc1ccc(-c2ccnc3ccnn23)cc1` [Compound 4b, 7-(4-Fluorophenyl)pyrazolo[1,5-a]pyrimidine], the minimal effective dose in data set [1] (0.5 h after injection), in data set [1] (4 h after injection), in data set [2] (0.5 h after injection) and in data set [2] (4 h after injection) was over 300 mg/kg throughout. Moreover, the “NT screening (rotarod)” value in data set [3] (0.5 h after injection) was “— (A dash indicates the absence of anticonvulsant activity and neurotoxicity at the maximum dose administered (300 mg/kg))”; in data set [3] (4 h after injection), “— (A dash indicates the absence of anticonvulsant activity and neurotoxicity at the maximum dose administered (300 mg/kg))”.
As to `Brc1ccc(-c2ccnc3ncnn23)cc1` [Compound 3f, 7-(4-Bromophenyl)-[1,2,4]triazolo[1,5-a]pyrimidine], the minimal effective dose in data set [1] (0.5 h after injection), in data set [1] (4 h after injection), in data set [2] (0.5 h after injection) and in data set [2] (4 h after injection) was over 300 mg/kg throughout. In addition, the “NT screening (rotarod)” value in data set [3] (0.5 h after injection) is “— (A dash indicates the absence of anticonvulsant activity and neurotoxicity at the maximum dose administered (300 mg/kg))”; in data set [3] (4 h after injection) it was “— (A dash indicates the absence of anticonvulsant activity and neurotoxicity at the maximum dose administered (300 mg/kg))”.
With `CCCOc1ccc(-c2ccnc3ncnn23)cc1` [Compound 6a, 7-(4-Propoxyphenyl)-[1,2,4]triazolo[1,5-a]pyrimidine], the minimal effective dose was 300 mg/kg in data set [1] (0.5 h after injection), over 300 mg/kg in data set [1] (4 h after injection), 300 mg/kg in data set [2] (0.5 h after injection) and over 300 mg/kg in data set [2] (4 h after injection). Besides, the “NT screening (rotarod)” value was “— (A dash indicates the absence of anticonvulsant activity and neurotoxicity at the maximum dose administered (300 mg/kg))” in data set [3] (0.5 h after injection); “— (A dash indicates the absence of anticonvulsant activity and neurotoxicity at the maximum dose administered (300 mg/kg))” in data set [3] (4 h after injection).
On to `Clc1ccc(-c2ccnc3ncnn23)c(Cl)c1` [Compound 3e, 7-(2,4-Dichlorophenyl)-[1,2,4]triazolo[1,5-a]pyrimidine], for which the minimal effective dose is 100 mg/kg in data set [1] (0.5 h after injection), over 300 mg/kg in data set [1] (4 h after injection), 100 mg/kg in data set [2] (0.5 h after injection) and over 300 mg/kg in data set [2] (4 h after injection). Further, the “NT screening (rotarod)” value was “— (A dash indicates the absence of anticonvulsant activity and neurotoxicity at the maximum dose administered (300 mg/kg))” in data set [3] (0.5 h after injection); “— (A dash indicates the absence of anticonvulsant activity and neurotoxicity at the maximum dose administered (300 mg/kg))” in data set [3] (4 h after injection).
Consider `Cc1ccc(-c2ccnc3ncnn23)cc1` [Compound 3h, 7-(P-tolyl)-[1,2,4]triazolo[1,5-a]pyrimidine], for which the minimal effective dose in data set [1] (0.5 h after injection) is 300 mg/kg; in data set [1] (4 h after injection) it was over 300 mg/kg; in data set [2] (0.5 h after injection), 100 mg/kg; in data set [2] (4 h after injection), over 300 mg/kg. Further, the “NT screening (rotarod)” value in data set [3] (0.5 h after injection) is “— (A dash indicates the absence of anticonvulsant activity and neurotoxicity at the maximum dose administered (300 mg/kg))”; in data set [3] (4 h after injection) it was “— (A dash indicates the absence of anticonvulsant activity and neurotoxicity at the maximum dose administered (300 mg/kg))”.
In the case of `Fc1ccc(-c2ccnc3ncnn23)cc1` [Compound 3b, 7-(4-Fluorophenyl)-[1,2,4]triazolo[1,5-a]pyrimidine], the minimal effective dose in data set [1] (0.5 h after injection) is 300 mg/kg; in data set [1] (4 h after injection) it was over 300 mg/kg; in data set [2] (0.5 h after injection), 300 mg/kg; in data set [2] (4 h after injection), over 300 mg/kg. Moreover, the “NT screening (rotarod)” value was “— (A dash indicates the absence of anticonvulsant activity and neurotoxicity at the maximum dose administered (300 mg/kg))” in data set [3] (0.5 h after injection); “— (A dash indicates the absence of anticonvulsant activity and neurotoxicity at the maximum dose administered (300 mg/kg))” in data set [3] (4 h after injection).
As to `Cc1ccc(-c2ccnc3ccnn23)cc1` [Compound 4h, 7-(P-tolyl)pyrazolo[1,5-a]pyrimidine], the minimal effective dose in data set [1] (0.5 h after injection) is over 300 mg/kg; in data set [1] (4 h after injection) it was over 300 mg/kg; in data set [2] (0.5 h after injection), 300 mg/kg; in data set [2] (4 h after injection), over 300 mg/kg. In addition, the “NT screening (rotarod)” value is “— (A dash indicates the absence of anticonvulsant activity and neurotoxicity at the maximum dose administered (300 mg/kg))” in data set [3] (0.5 h after injection); “— (A dash indicates the absence of anticonvulsant activity and neurotoxicity at the maximum dose administered (300 mg/kg))” in data set [3] (4 h after injection).
Take `COc1ccc(-c2ccnc3ccnn23)cc1` [Compound 4i, 7-(4-Methoxyphenyl)pyrazolo[1,5-a]pyrimidine]: the minimal effective dose in data set [1] (0.5 h after injection) was over 300 mg/kg; in data set [1] (4 h after injection), over 300 mg/kg; in data set [2] (0.5 h after injection), 300 mg/kg; in data set [2] (4 h after injection), over 300 mg/kg. Moreover, the “NT screening (rotarod)” value was “— (A dash indicates the absence of anticonvulsant activity and neurotoxicity at the maximum dose administered (300 mg/kg))” in data set [3] (0.5 h after injection); “— (A dash indicates the absence of anticonvulsant activity and neurotoxicity at the maximum dose administered (300 mg/kg))” in data set [3] (4 h after injection).
As for `O=[N+]([O-])c1ccc(-c2ccnc3ccnn23)cc1` [Compound 4g, 7-(4-Nitrophenyl)pyrazolo[1,5-a]pyrimidine], the minimal effective dose in data set [1] (0.5 h after injection), in data set [1] (4 h after injection), in data set [2] (0.5 h after injection) and in data set [2] (4 h after injection) was over 300 mg/kg throughout. Moreover, the “NT screening (rotarod)” value was “— (A dash indicates the absence of anticonvulsant activity and neurotoxicity at the maximum dose administered (300 mg/kg))” in data set [3] (0.5 h after injection); “— (A dash indicates the absence of anticonvulsant activity and neurotoxicity at the maximum dose administered (300 mg/kg))” in data set [3] (4 h after injection).
